Measurements published in patent US20130149395A1, “Pharmaceutical Product, Method of Production and Method of Application of the Pharmaceutical Product” (priority 2010, published 2013).

Experiment: Stability of 2,2-dichloropropionic acid during prolonged storage (NMR impurity identification)
Format: physicochemical
Details: transforms into pyroracemic acid or alpha chloroacrylic acid
From the text: The impurity identification of 2,2-dichloropropionic acid, taken as an example, has been conducted using the method of NMR spectroscopy on the ^1H and ^13C nuclei, one of the most informative methods, which allows to determine the composition of each impurity even if the numerous related compounds are found in the sample.

CC(Cl)(Cl)C(=O)O [2,2-dichloropropionic acid]
Stability to daylight and prolonged storage: daylight-sensitive
